The results in this text go back to patent US20140039044A1, “Hydroxylated Polymethoxyflavone Compositions” (WLLGEN, INC., priority 2006, published 2014).

Assay type in all cases: cell-based, mouse
The subject of experiment [1] is COX-2 mRNA. As to the kind of experiment: LPS-induced COX-2 mRNA expression by real-time PCR. The note with it: RAW264.7 macrophages, 100 ng/mL LPS, 20 μM, relative to G3PDH, FIG. 6. How it is done:
Bacterial lipopolysaccharide (LPS)-induced COX-2 expression was monitored in RAW264.7 macrophages, as previously described. Briefly, COX-2 expression was determined in untreated cells and cells treated with 100 ng/mL LPS either in the absence or the presence of 20 μM 5-hydroxy-3,6,7,8,3′,4′-hexamethoxyflavone. COX-2 mRNA levels were determined by real-time PCR where the values obtained were relative to expression of glyceraldehyde-3-phosphate dehydrogenase (G3PDH).
For orientation: Real-time PCR tracks product formation cycle by cycle.

Experiment [2] concerns iNOS. The experiment in a line: Western blot of LPS-induced iNOS protein expression. The note with it: LPS-activated macrophages, 30 μM, 24 h, FIG. 4. As to the method:
(§1) Proteins were isolated from cells after treatment with test compounds for 24 h. Total protein was extracted by adding 200 μL of gold lysis buffer (50 mM Tris-HCl, pH 7.4; 1 mM NaF; 150 mM NaCl; 1 mM EGTA; 1 mM phenylmethanesulfonyl fluoride; 1% NP-40; and 10 μg/mL leupeptin) to the cell pellets, which were kept on ice for 30 minutes, followed by centrifugation at 10,000×g for 30 min at 4° C. The protein concentrations of the cytosolic fraction (supernatant) were measured by BIO-RAD Protein Assay (Bio-Rad Laboratories, Munich, Germany). Samples containing 50 μg of protein were electrophoretically separated by SDS-PAGE and transferred to PVDF membrane (Millipore Corp., Bedford, Mass.) using standard procedures. See Burnette (1981) Anal. Biochem. 112:195-203. […]
(§2) Western blot analysis of inhibition of LPS-induced iNOS and COX-2 protein expression by PMFs was analyzed, following procedures described above. […] Equal amounts of total proteins (50 μg) were subjected to 10% SDS-PAGE, and expression of iNOS, COX-2 and β-actin protein was detected by Western blot using specific antibodies.
Background: In western blotting, separated proteins are transferred to a membrane and probed.

For experiment [3], the system named is COX-2. As to the kind of experiment: Western blot of LPS-induced COX-2 protein expression. To be noted: LPS-activated macrophages, 30 μM, 24 h, FIG. 4. How it is done: as §1, §2
The subject of experiment [4] is LPS-induced NFκB promoter activities in RAW264.7 macrophages. As to the kind of experiment: NFκB-dependent luciferase reporter assay. The note with it: FIG. 5. How it is done: RAW264.7 cells were seeded in […]. When the cells were confluent, the medium was replaced with serum-free Opti-MEM (Gibco-BRL). Then the cells were transfected with the p-NFκB-Luc plasmid reporter gene using LIPOFECTAMINE™ reagent (Invitrogen). After 6 h incubation, the medium was replaced with complete medium. After 24 h, the cells were trypsinized and equal numbers of cells were plated in 24 well tissue culture plates for 6 h. Cells were then treated with LPS (100 ng/ml) alone or with PMFs (10 or 30 μM) for 12 h. Each well was wash twice with cold PBS and harvested in 100 μl serum-free DMEM, and the luciferase activity was assayed by LUCILITE luciferase reporter gene assay kit (PerkinElamer). Luminescence was measured in a Luminescence counter (Molecular Devices, LMaxII) in single photon counting mode for 2 sec/well, following 5 min adaptation in the dark.
To confirm whether selected PMFs inhibited NFκB binding activity in LPS-induced macrophages, assessment of luciferase expression in cells transiently transfected with NFκB-dependent luciferase reporter plasmid was assessed according to the procedures described above in Section 8.4.
(In a reporter assay the amount or activity of a reporter protein is the signal.)

`COc1ccc(-c2oc3c(OC)c(OC)c(OC)c(O)c3c(=O)c2OC)cc1OC` [Compound C, 5-hydroxy-3,6,7,8,3′,4′-hexamethoxyflavone]: the “Inhibition of LPS-induced COX-2 mRNA expression, in words” value in experiment [1] was “inhibits LPS-induced COX-2 mRNA expression”. Turning to `COc1ccc(-c2cc(=O)c3c(O)c(OC)c(OC)c(OC)c3o2)cc1O` [Compound K, 5,3′-dihydroxy-6,7,8,4′-tetramethoxyflavone], the “Inhibition of iNOS expression (Western blot), in words” value in experiment [2] is recorded as “most potent inhibitor of iNOS expression”.

Take `COc1c(OC)c(OC)c2c(=O)cc(-c3ccc(O)c(O)c3)oc2c1OC` [H, 3′,4′-dihydroxy-5,6,7,8-tetramethoxyflavone]: the “Inhibition of COX-2 expression (Western blot), in words” value in experiment [3] is “most potent inhibitor of COX-2 expression”. In addition, the “Rank of inhibitory potency on LPS-induced NFκB transcriptional activity” value in experiment [4] (RAW264.7, 30 μM) is reported as “greatest inhibitory potency of PMFs tested”. The “Inhibition of LPS-induced NFκB transcriptional activity, in words” value in experiment [4] (RAW264.7, LPS 100 ng/ml, PMF 10 or 30 μM, 12 h) is given as “inhibited LPS-induced NFκB transcriptional activity in a concentration-dependent manner”.
